pKi: −log10 of the molar value.
Target: T1, Mitogen-activated protein kinase kinase kinase 12 (Homo sapiens, UniProt Q12852)
T1 sequence (Q12852 whole entry): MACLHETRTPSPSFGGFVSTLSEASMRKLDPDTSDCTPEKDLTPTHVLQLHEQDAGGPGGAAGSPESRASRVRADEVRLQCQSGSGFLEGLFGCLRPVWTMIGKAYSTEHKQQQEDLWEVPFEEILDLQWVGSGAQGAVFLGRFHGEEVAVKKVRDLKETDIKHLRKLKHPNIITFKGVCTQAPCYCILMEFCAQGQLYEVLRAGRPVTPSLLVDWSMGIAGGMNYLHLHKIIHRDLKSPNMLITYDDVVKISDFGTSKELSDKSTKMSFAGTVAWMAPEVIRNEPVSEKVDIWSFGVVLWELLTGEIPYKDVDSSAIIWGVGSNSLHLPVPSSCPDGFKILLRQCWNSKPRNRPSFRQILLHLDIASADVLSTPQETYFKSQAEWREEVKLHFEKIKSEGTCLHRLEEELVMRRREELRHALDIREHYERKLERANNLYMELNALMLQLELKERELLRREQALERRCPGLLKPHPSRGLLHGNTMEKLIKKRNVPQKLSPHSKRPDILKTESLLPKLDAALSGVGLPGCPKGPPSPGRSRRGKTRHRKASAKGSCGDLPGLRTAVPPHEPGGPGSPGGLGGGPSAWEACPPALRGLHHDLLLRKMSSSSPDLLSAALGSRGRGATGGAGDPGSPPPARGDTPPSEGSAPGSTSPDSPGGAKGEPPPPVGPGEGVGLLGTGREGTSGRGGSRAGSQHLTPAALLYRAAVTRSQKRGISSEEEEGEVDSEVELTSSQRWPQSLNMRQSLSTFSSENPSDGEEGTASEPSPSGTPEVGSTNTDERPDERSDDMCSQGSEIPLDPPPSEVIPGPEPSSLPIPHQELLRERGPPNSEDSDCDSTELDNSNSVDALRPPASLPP
Assay: DLK TR-FRET Inhibition Assay: DLK kinase reactions (20 μL) containing 5 nM N-terminally GST-tagged DLK (catalytic domain amino acid 1-520) (Carna Bioscience), 40 nM N-terminally HIS tagged MKK4 K131M substrate, and 30 μM ATP in kinase reaction buffer (50 mM HEPES, pH 7.5, 0.01% Triton X-100, 0.01% Bovine γ-Globulins, 2 mM DTT, 10 mM MgCl2 and 1 mM EGTA), and testing compound 1:3 serial diluted starting at 20 uM were incubated at ambient temperature for 60 minutes in 384 well OptiPlate (Perkin Elmer). To quench kinase reactions and detect phosphorylated MKK4, 15 μL of TR-FRET antibody mixture containing 2 nM anti-phosphorylated MKK4 labeled with Europium cryptate (Cisbio) and 23 nM anti-HIS labeled with D2 (Cisbio) in detection buffer (25 mM Tris pH 7.5, 100 mM NaCl, 100 mM EDTA, 0.01% Tween-20, and 200 mM KF) was added to the reaction mixture. The detection mixture was incubated for 3 hours at ambient temperature and the TR-FRET was detected with an EnVision multilabel plate reader (Perkin-Elmer) using the LANCE/DELFIA Dual Enh label from Perkin-Elmer (excitation filter: UV2 (TRF) 320 and emission filters: APC 665 and Europium 615).

Row | pKi | SMILES
1 | 7.33 | Cc1c[nH]c2ncc(-c3nc(N4CC5COCC5C4)c4nc5n(c4n3)CCOC5(C)C)cc12 (centres undefined)
2 | 6.00 | CC1(C)OCCn2c1nc1c(N3CC4COCC4C3)nc(-c3cnc(N)nc3)nc12 (centres undefined)
3 | 6.65 | COC1C2CCC1N(c1nc(-c3cnc(N)nc3)nc3c1nc1n3CCOC1(C)C)C2 (centres undefined)
4 | 5.85 | CC(C)n1nccc1-c1nc(-c2cnc(N)nc2)nc2c1nc1n2CCOC1(C)C
